Assays:
[1] = biological target: T1, farnesyl pyrophosphate synthase (PaFPPS, PA4043) (Pseudomonas aeruginosa, UniProt Q9HWY4); experiment: turnover with GPP by the purified enzyme, pyrophosphatase-coupled malachite green assay (kcat […] s^-1; no inhibition implied); format: biochemical
T1 construct: gene ispA; full-length, 295 amino acids
T1 sequence (Q9HWY4 1-295): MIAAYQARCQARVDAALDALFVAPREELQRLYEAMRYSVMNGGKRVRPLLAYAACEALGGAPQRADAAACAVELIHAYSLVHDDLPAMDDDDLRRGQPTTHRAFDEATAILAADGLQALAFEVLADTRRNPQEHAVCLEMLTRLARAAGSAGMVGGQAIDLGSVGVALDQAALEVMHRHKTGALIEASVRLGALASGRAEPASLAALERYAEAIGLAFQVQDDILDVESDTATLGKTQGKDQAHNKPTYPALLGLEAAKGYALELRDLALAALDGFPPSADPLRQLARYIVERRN

[2] = biological target: T2, farnesyl pyrophosphate synthase (PaFPPS, PA4043) (Pseudomonas aeruginosa, UniProt Q9HWY4); experiment: X-ray crystal structure at […] Å (also with GPP, 3zou); DSF shift […] °C; no significant inhibition at […]; format: binding
T2 construct: gene ispA; full-length, 295 amino acids, His tag cleaved with TEV

[3] = biological target: the molecule itself; experiment: crystal structure; sitting-drop vapour diffusion, 25 mg/ml protein; native: 20% PEG 3350, 0.2 M NaF, 0.1 M bis-tris propane pH 6.5; asymmetric unit holds a dimer related by a twofold noncrystallographic axis; 1.55 A

Molecule: C=C(C)CCO[P@@](=O)(O)OP(=O)(O)O [isopentenyl pyrophosphate]
- turnover with GPP by the purified enzyme, pyrophosphatase-coupled malachite gree [1]: no reaction took place without both IPP and GPP being present

Molecule: O=C(O)CCn1c(=O)oc2ccccc21 [SPB02696, 3-[2-hydrozybenzo[d]oxazol-3(2H)-yl]propanoic acid]
- X-ray crystal structure at 1.90 Å (also with GPP, 3zou); DSF shift 2.8 °C; no si [2]: we describe the details of the enzyme–ligand interactions for fragment hit SPB02696 (termed 6H6 in the deposited coordinate file)

B1: farnesyl pyrophosphate synthase from Pseudomonas aeruginosa PAO1 (locus PA4043) (enzyme, UniProt Q9HWY4 1-295, looked up)
chain: T1 sequence (Q9HWY4 1-295)
notes: farnesyl pyrophosphate synthase, P. aeruginosa PAO1, locus PA4043; open reading frame amplified from the genome; protein of 295 amino acids; residues Ala227-Gly254 (loop-HI) disordered in all structures; Vector pNIC28-Bsa4 with N-terminal six-histidine tag and TEV site; the tag is cleaved in the purification; The ESI-MS mass of 34 017.5 Da was of the protein with the His tag; also called PaFPPS; …
- stoichiometry N [3]: 2
